Measurements as given in ChEMBL document CHEMBL1143350, “Structure and activity of (2,8)-dicarba-(3,12)-cystino alpha-ImI, an alpha-conotoxin containing a nonreducible cystine analogue” (J Med Chem, 2009).
Calls of active or inactive are those of the source. The rule behind the calls is not given here.

Key:
[1] = molecular target: Neuronal acetylcholine receptor subunit alpha-7 (Rattus norvegicus) (UniProt Q05941); experiment: Antagonist activity at rat alpha7 nAChR expressed in Xenopus laevis oocytes assessed as inhibition of acetylcholine-evoked ion current at 2.5 uM treated 3 mins prior to acetylcholine challenge measured after 2 to 4 days by two-electrode voltage clamp method; type: functional, cell-based; design: scale not given: the % may be the effect or the level left; details: Oocyte
Neuronal acetylcholine receptor subunit alpha-7 (Rattus norvegicus), sequence (Q05941 whole entry): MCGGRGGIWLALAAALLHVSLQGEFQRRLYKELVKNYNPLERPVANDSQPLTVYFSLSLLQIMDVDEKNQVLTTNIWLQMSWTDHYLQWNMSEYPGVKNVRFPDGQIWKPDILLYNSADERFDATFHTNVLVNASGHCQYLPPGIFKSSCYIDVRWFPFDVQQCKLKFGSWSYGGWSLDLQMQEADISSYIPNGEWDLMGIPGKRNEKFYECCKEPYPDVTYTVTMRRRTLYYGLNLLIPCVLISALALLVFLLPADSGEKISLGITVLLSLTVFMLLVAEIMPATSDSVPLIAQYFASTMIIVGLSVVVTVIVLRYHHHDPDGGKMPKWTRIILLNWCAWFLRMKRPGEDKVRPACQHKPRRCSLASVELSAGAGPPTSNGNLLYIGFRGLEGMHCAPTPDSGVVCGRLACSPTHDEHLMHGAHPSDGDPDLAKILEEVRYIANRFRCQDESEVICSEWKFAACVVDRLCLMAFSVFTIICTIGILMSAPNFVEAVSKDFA

[2] = molecular target: Neuronal acetylcholine receptor subunit alpha-7 (Rattus norvegicus) (UniProt Q05941); experiment: Activation of rat alpha7 nAChR expressed in Xenopus laevis oocytes at 2.5 uM; type: cell-based; details: Oocyte
Bos taurus [3] = species on record: Bos taurus; experiment: (§1) Antagonist activity at nAChR in nicotine-stimulated bovine adrenal chromaffin cells assessed as inhibition of adrenaline release preincubated for 5 mins before nicotine challenge by RP-HPLC; type: functional
[4] = as §1; type: functional; details: Bos taurus
Bos taurus [5] = species on record: Bos taurus; experiment: (§2) Antagonist activity at nAChR in nicotine-stimulated bovine adrenal chromaffin cells assessed as inhibition of noradrenaline release preincubated for 5 mins before nicotine challenge by RP-HPLC; type: functional
[6] = as §2; type: functional; details: Bos taurus

Row | SMILES | Activity [1] | Activity [2] | Activity (Bos taurus [3]) | IC50 [4] [µM] | Activity (Bos taurus [5]) | IC50 [6] [µM]
1 | C=CN(CC(=O)NC1C/C=C\CC2NC(=O)[C@H](CCCNC(=N)N)NC(=O)[C@@H]3CCCN3C(=O)[C@H](CC(=O)O)NC(=O)[C@H](CO)NC(=O)[C@H](CSSC[C@@H](C(=O)O)NC(=O)[C@H](CCCNC(=N)N)NC(=O)[C@H](Cc3c[nH]c4ccccc34)NC(=O)[C@H](C)NC2=O)NC1=O)C(=O)CN (single isomer, unassigned; isomer I) | 60% | inactive | Dose-dependent effect | 10 | Dose-dependent effect | 17
2 | C[C@H](NC(=O)[C@H](CS)NC(=O)[C@H](CCCNC(=N)N)NC(=O)[C@@H]1CCCN1C(=O)[C@H](CC(=O)O)NC(=O)[C@H](CO)NC(=O)[C@H](CS)NC(=O)[C@H](CS)NC(=O)CN)C(=O)N[C@@H](Cc1c[nH]c2ccccc12)C(=O)N[C@@H](CCCNC(=N)N)C(=O)N[C@@H](CS)C(N)=O | 68% | inactive | Dose-dependent effect | 1.12 | Dose-dependent effect | 0.87
3 | C=CN(CC(=O)NC1C/C=C/CC2NC(=O)[C@H](CCCNC(=N)N)NC(=O)[C@@H]3CCCN3C(=O)[C@H](CC(=O)O)NC(=O)[C@H](CO)NC(=O)[C@H](CSSC[C@@H](C(=O)O)NC(=O)[C@H](CCCNC(=N)N)NC(=O)[C@H](Cc3c[nH]c4ccccc34)NC(=O)[C@H](C)NC2=O)NC1=O)C(=O)CN (single isomer, unassigned) | inactive | – | Dose-dependent effect | 15 | Dose-dependent effect | 20
